Bounds are passed on as bounds.

This test deals with T1, MAT2A (Homo sapiens, UniProt P31153).
T1 construct: His6; made in house; host or cells: SF9 insect cells
T1 sequence (P31153 whole entry): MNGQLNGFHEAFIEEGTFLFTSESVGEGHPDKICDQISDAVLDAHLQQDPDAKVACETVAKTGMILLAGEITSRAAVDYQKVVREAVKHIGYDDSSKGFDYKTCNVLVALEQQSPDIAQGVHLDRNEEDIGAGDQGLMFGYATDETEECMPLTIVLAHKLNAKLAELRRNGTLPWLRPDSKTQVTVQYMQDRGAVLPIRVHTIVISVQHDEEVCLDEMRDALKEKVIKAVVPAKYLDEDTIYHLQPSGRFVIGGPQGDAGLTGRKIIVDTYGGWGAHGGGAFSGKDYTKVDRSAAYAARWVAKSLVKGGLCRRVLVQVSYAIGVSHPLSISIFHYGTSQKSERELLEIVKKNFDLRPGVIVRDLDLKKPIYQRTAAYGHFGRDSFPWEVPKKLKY
Briefly: MAT2A biochemical assay (colorimetric inorganic phosphate detection, PiColorLock). The settings on record: recombinant His6-tagged MAT2A 1 μg/ml; 60 minutes preincubation at 25° C.; L-Met 80 μM, ATP 100 μM; 60 minutes reaction; read at 623 nm; read-out: MAT2A Inhibition Score. Put shortly: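 Colorimetric malachite green readout of phosphate released when MAT2A turns over L-Met and ATP, after 60 min at room temperature. Enzyme: SF9-expressed His6-tagged MAT2A at 1 μg/ml. Buffer: Tris pH 8.0, 50 mM KCl, 15 mM MgCl2, 300 uM EDTA, 0.005% BSA. Compounds tested as ten-point three-fold dilutions.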
As for `Cc1[nH]c2c(-c3ccccc3)c(-c3cc[nH]n3)nn2c(=O)c1-c1ccc2ncccc2c1` [Compound 280, 5-methyl-3-phenyl-2-(1H-pyrazol-3-yl)-6-(quinolin-6-yl)pyrazolo[1,5-a]pyrimidin-7(4H)-one], the IC50 was under 0.1 µM. The value for `Cn1c(CO)c(-c2ccc3ncccc3c2)c(=O)n2nc(-c3ccccc3)c(-c3ccccc3)c12` [Compound 281, 5-(hydroxymethyl)-4-methyl-2,3-diphenyl-6-(quinolin-6-yl)pyrazolo[1,5-a]pyrimidin-7(4H)-one] was under 0.1 µM; that for `Cc1[nH]c2c(C3=CC(O)CCC3)c(-c3ccccc3)nn2c(=O)c1-c1ccc2ncccc2c1` (stereo not drawn) [Compound 282] was under 0.1 µM.

As to `COc1ccc(-c2c(NC(=O)CN)[nH]c3c(-c4ccccc4)c(-c4ccccc4)nn3c2=O)cc1` [Compound 283, 2-amino-N-(6-(4-methoxyphenyl)-7-oxo-2,3-diphenyl-4,7-dihydropyrazolo[1,5-a]pyrimidin-5-yl)acetamide], the IC50 is under 0.1 µM.

With `COc1ccc(-c2c(Nc3nnc(C)s3)[nH]c3c(-c4ccccc4)c(-c4ccccc4)nn3c2=O)cc1` [Compound 285, 6-(4-methoxyphenyl)-5-((5-methyl-1,3,4-thiadiazol-2-yl)amino)-2,3-diphenylpyrazolo[1,5-a]pyrimidin-7(4H)-one], the IC50 was under 0.1 µM. Take `COc1ccc(-c2c(NCCO)[nH]c3c(-c4ccccc4)c(-c4ccccc4)nn3c2=O)cc1` [Compound 286, 5-((2-hydroxyethyl)amino)-6-(4-methoxyphenyl)-2,3-diphenylpyrazolo[1,5-a]pyrimidin-7(4H)-one]: the IC50 was under 0.1 µM. Consider `CCOC(=O)n1ccc(Nc2[nH]c3c(-c4ccccc4)c(-c4ccccc4)nn3c(=O)c2-c2ccc(OC)cc2)n1` [Compound 287, ethyl 3-((6-(4-methoxyphenyl)-7-oxo-2,3-diphenyl-4,7-dihydropyrazolo[1,5-a]pyrimidin-5-yl)amino)-1H-pyrazole-1-carboxylate], for which the IC50 is under 0.1 µM. The value for `COc1ccc(-c2c(O)[nH]c3c(-c4ccccc4)c(-c4ccccc4)nn3c2=O)cc1` [Compound 290, 5-hydroxy-6-(4-methoxyphenyl)-2,3-diphenylpyrazolo[1,5-a]pyrimidin-7(4H)-one] was under 0.1 µM; that for `COCn1c(-c2ccccc2)c(C2=CCCCC2)c2nc(C)c(-c3ccc(OC)cc3)c(=O)n21` [Compound 291, 3-cyclohexenyl-1-(methoxymethyl)-6-(4-methoxyphenyl)-5-methyl-2-phenylpyrazolo[1,5-a]pyrimidin-7(1H)-one] was under 0.1 µM; that for `Cc1[nH]c2c(-c3ccccc3)c(-c3ccccc3)nn2c(=O)c1-c1ccc(O)c(OCCN(C)C)c1` [Compound 292, 6-(3-(2-(dimethylamino)ethoxy)-4-hydroxyphenyl)-5-methyl-2,3-diphenylpyrazolo[1,5-a]pyrimidin-7(4H)-one] was under 0.1 µM. On to `Cc1[nH]c2c(C3=CCCCC3)c(-c3ccccc3)nn2c(=O)c1-c1ccc(OC(=O)[C@@H](N)C(C)C)cc1` [Compound 294, (S)-4-(3-cyclohexenyl-5-methyl-7-oxo-2-phenyl-4,7-dihydropyrazolo[1,5-a]pyrimidin-6-yl)phenyl 2-amino-3-methylbutanoate], for which the IC50 was under 0.1 µM. In the case of `Cc1[nH]c2c(C3=CCCCC3)c(-c3ccccc3)nn2c(=O)c1-c1ccc(OP(=O)(O)O)cc1` [Compound 295, 4-(3-(cyclohex-1-en-1-yl)-5-methyl-7-oxo-2-phenyl-4,7-dihydropyrazolo[1,5-a]pyrimidin-6-yl)phenyl dihydrogen phosphate], the IC50 was under 0.1 µM. For `Cc1[nH]c2c(C3=CCCCC3)c(-c3ccccc3)nn2c(=O)c1-c1ccc(OCOP(=O)(O)O)cc1` [Compound 296, (4-(3-cyclohexenyl-5-methyl-7-oxo-2-phenyl-4,7-dihydropyrazolo[1,5-a]pyrimidin-6-yl)phenoxy)methyl dihydrogen phosphate] the value was under 0.1 µM; for `COc1ccc(-c2c(Nc3ccncc3)[nH]c3c(C4=CCCCC4)c(-c4ccccc4)nn3c2=O)cc1` [Compound 297, 3-(cyclohex-1-en-1-yl)-6-(4-methoxyphenyl)-2-phenyl-5-(pyridin-4-ylamino)pyrazolo[1,5-a]pyrimidin-7(4H)-one], under 0.1 µM. Take `Cc1[nH]c2c(N3CCCCC3)c(-c3ccccc3)nn2c(=O)c1C1CC1` [Compound 298, 6-cyclopropyl-5-methyl-2-phenyl-3-(piperidin-1-yl)pyrazolo[1,5-a]pyrimidin-7(4H)-one]: the IC50 is 0.1 to 1 µM. For `Cc1[nH]c2c(N3CCCCC3)c(-c3ccccc3)nn2c(=O)c1C1CCCC1` [Compound 300, 6-cyclopentyl-5-methyl-2-phenyl-3-(piperidin-1-yl)pyrazolo[1,5-a]pyrimidin-7(4H)-one] the value was 0.1 to 1 µM; for `Cc1[nH]c2c(N3CCCCC3)c(-c3ccccc3)nn2c(=O)c1-c1cccc(N)c1` [Compound 301, 6-(3-aminophenyl)-5-methyl-2-phenyl-3-(piperidin-1-yl)pyrazolo[1,5-a]pyrimidin-7(4H)-one], 0.1 to 1 µM.

For `Cc1[nH]c2c(N3CCCCC3)c(-c3ccccc3)nn2c(=O)c1N1CCOCC1` [Compound 302, 5-methyl-6-morpholino-2-phenyl-3-(piperidin-1-yl)pyrazolo[1,5-a]pyrimidin-7(4H)-one], the IC50 lay within 0.1 to 1 µM.

In the case of `Cc1[nH]c2c(N3CCCCC3)c(-c3ccccc3)nn2c(=O)c1-c1cc[nH]c(=O)c1` [Compound 303, 5-methyl-6-(2-oxo-1,2-dihydropyridin-4-yl)-2-phenyl-3-(piperidin-1-yl)pyrazolo[1,5-a]pyrimidin-7(4H)-one], the IC50 was 1 to 10 µM.

Turning to `Cc1[nH]c2c(N3CCCCC3)c(-c3ccccc3)nn2c(=O)c1-c1ccncc1` [Compound 304, 5-methyl-2-phenyl-3-(piperidin-1-yl)-6-(pyridin-4-yl)pyrazolo[1,5-a]pyrimidin-7(4H)-one], the IC50 fell in the range of 0.1 to 1 µM. For `Cc1[nH]c2c(N3CCCCC3)c(-c3ccccc3)nn2c(=O)c1-c1ccc(C(N)=O)cc1` [Compound 305, 4-(5-methyl-7-oxo-2-phenyl-3-(piperidin-1-yl)-4,7-dihydropyrazolo[1,5-a]pyrimidin-6-yl)benzamide] the value was 0.1 to 1 µM; for `Cc1[nH]c2c(N3CCCCC3)c(-c3ccccc3)nn2c(=O)c1-c1ccc(S(C)(=O)=O)cc1` [Compound 306, 5-methyl-6-(4-(methylsulfonyl)phenyl)-2-phenyl-3-(piperidin-1-yl)pyrazolo[1,5-a]pyrimidin-7(4H)-one], 1 to 10 µM.

With `Cc1[nH]c2c(N3CCCCC3)c(-c3ccccc3)nn2c(=O)c1-c1ccc(N)cc1` [Compound 307, 6-(4-aminophenyl)-5-methyl-2-phenyl-3-(piperidin-1-yl)pyrazolo[1,5-a]pyrimidin-7(4H)-one], the IC50 is 0.1 to 1 µM. Turning to `CC(=O)Nc1ccc(-c2c(C)[nH]c3c(N4CCCCC4)c(-c4ccccc4)nn3c2=O)cc1` [Compound 308, N-(4-(5-methyl-7-oxo-2-phenyl-3-(piperidin-1-yl)-4,7-dihydropyrazolo[1,5-a]pyrimidin-6-yl)phenyl)acetamide], the IC50 lay within 1 to 10 µM. For `Cc1[nH]c2c(N3CCCCC3)c(-c3ccccc3)nn2c(=O)c1-c1ccc(O)nc1` [Compound 309, 6-(6-hydroxypyridin-3-yl)-5-methyl-2-phenyl-3-(piperidin-1-yl)pyrazolo[1,5-a]pyrimidin-7(4H)-one] the value was 0.1 to 1 µM; for `Cc1[nH]c2c(N3CCCCC3)c(-c3ccccc3)nn2c(=O)c1-c1cscn1` [Compound 310, 5-methyl-2-phenyl-3-(piperidin-1-yl)-6-(thiazol-4-yl)pyrazolo[1,5-a]pyrimidin-7(4H)-one], 1 to 10 µM; for `Cc1[nH]c2c(N3CCCCC3)c(-c3ccccc3)nn2c(=O)c1N1CCC(O)CC1` [Compound 311, 6-(4-hydroxypiperidin-1-yl)-5-methyl-2-phenyl-3-(piperidin-1-yl)pyrazolo[1,5-a]pyrimidin-7(4H)-one], 0.1 to 1 µM. The value for `CCc1[nH]c2c(-c3ccccc3)c(-c3ccccc3)nn2c(=O)c1-c1ccc(OC)cc1` [Compound 312, 5-ethyl-6-(4-methoxyphenyl)-2,3-diphenylpyrazolo[1,5-a]pyrimidin-7(4H)-one] was 0.1 to 1 µM; that for `COc1ccc(-c2c(C#N)[nH]c3c(-c4ccccc4)c(-c4ccccc4)nn3c2=O)cc1` [Compound 314, 6-(4-methoxyphenyl)-7-oxo-2,3-diphenyl-4,7-dihydropyrazolo[1,5-a]pyrimidine-5-carbonitrile] was 0.1 to 1 µM. With `COc1ccc(-c2c(C(N)=O)[nH]c3c(-c4ccccc4)c(-c4ccccc4)nn3c2=O)cc1` [Compound 315, 6-(4-methoxyphenyl)-7-oxo-2,3-diphenyl-4,7-dihydropyrazolo[1,5-a]pyrimidine-5-carboxamide], the IC50 lay within 0.1 to 1 µM.

`Cc1[nH]c2c(N3CCC(F)(F)C3)c(-c3ccccc3)nn2c(=O)c1-c1ccc2ncccc2c1` [Compound 316, 3-(3,3-difluoropyrrolidin-1-yl)-5-methyl-2-phenyl-6-(quinolin-6-yl)pyrazolo[1,5-a]pyrimidin-7(4H)-one]: the IC50 lay in the range of 0.1 to 1 µM. For `Cc1[nH]c2c(N3CCC(F)(F)C3)c(-c3ccccc3)nn2c(=O)c1-c1ccc2nccn2c1` [Compound 317, 3-(3,3-difluoropyrrolidin-1-yl)-6-(imidazo[1,2-a]pyridin-6-yl)-5-methyl-2-phenylpyrazolo[1,5-a]pyrimidin-7(4H)-one] the value was 0.1 to 1 µM. `Cc1c(-c2ccc3ncccc3c2)c(=O)n2nc(-c3ccccc3)c(-c3ccccc3)c2n1C` [Compound 318, 4,5-dimethyl-2,3-diphenyl-6-(quinolin-6-yl)pyrazolo[1,5-a]pyrimidin-7(4H)-one]: the IC50 was in the range of 0.1 to 1 µM.
